In one assay the target is T1, Human Jak3 (Homo sapiens, UniProt P52333).
T1 construct: A fragment encoding the catalytic domain of Jak3 (508aa to 1124aa) was ligated with GST at 5′ end; made in house; host or cells: Sf9 insect cells (baculovirus, pFastBac 1)
T1 sequence (P52333 508-1124): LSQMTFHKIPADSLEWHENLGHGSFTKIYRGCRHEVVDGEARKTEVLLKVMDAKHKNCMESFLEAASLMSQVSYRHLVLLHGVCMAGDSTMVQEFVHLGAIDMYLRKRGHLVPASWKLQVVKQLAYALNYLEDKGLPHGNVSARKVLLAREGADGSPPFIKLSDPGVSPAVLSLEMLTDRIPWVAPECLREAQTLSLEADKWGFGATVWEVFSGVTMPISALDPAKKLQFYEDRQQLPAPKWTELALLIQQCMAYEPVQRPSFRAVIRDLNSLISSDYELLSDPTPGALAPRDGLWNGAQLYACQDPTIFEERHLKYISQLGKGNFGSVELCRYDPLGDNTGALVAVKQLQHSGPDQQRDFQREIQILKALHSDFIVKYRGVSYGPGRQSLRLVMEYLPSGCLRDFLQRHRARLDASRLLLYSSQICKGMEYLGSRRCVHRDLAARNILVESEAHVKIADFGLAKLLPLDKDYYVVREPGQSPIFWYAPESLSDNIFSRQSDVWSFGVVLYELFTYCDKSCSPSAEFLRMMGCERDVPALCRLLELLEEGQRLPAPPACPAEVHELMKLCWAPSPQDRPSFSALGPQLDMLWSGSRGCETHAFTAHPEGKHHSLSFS
As to the kind of experiment: Jak3 Kinase Assay (HTRF, GST-Jak3 catalytic domain). Format: biochemical. Particulars: for IC50: (R) and (S) enantiomer pair. As to the method: Human Jak3 cDNA was amplified by PCR. A fragment encoding the catalytic domain of Jak3 (508aa to 1124aa) was ligated with GST at 5′ end. This fused GST-Jak3 DNA fragment was cloned into the EcoRI site of the donor plasmid pFastBac 1 (Life Technologies #10359-016). The transformation, transposition, and transfection of insect cells (Sf9) were performed according to the manufacture's instructions. The cell lysate containing recombinant GST-Jak3 was used in the kinase assay. Anti-GST antibody (10 μg/ml, Sigma #G1417) was coated onto a 384-well plate at 4° C. overnight. Cell lysate containing GST-Jak3 (1:100 dilution) was added to the anti-GST coated plates, and GST-Jak3 was captured by immobilized anti-GST antibody. Testing compounds and substrate mix (50 mM HEPES, pH 7, 0.5 mM Na3VO4, 25 mM MgCl2, 1 mM DTT, 0.005% BSA, 1 μM ATP, and 4.5 μg/ml biotinyl poly-Glu,Ala,Tyr) were added to the plate to initiate the reaction. After a 60-min incubation, the reaction was stopped by 4 mM EDTA, and phosphorylation of biotinyl poly-Glu,Ala,Tyr was detected using 17 μg/ml Cy5-streptavidin (Amersham, #PA92005) and 2.7 μg/ml Europium-conjugated anti-phosphotyrosine antibody (PerkinElmer #AD0069) using homogeneous time-resolved fluorescence (HTRF) technology.

The subject of assay [1] is IL-2-induced IFN-γ production. As to the kind of experiment: IL-2-Induced IFN-γ Production in the Mouse. Type of assay: in vivo. Particulars: po, 1 h, 30 mg/kg by gavage one hour before IL-2, serum IFN-γ, female BALB/c mice, read-out: inhibition of IL-2-induced IFN-gamma production. As to the method:
Administration of IL-2 leads to an increase in serum IFN-γ in the mouse due to NK secretion of the cytokine (Thornton S, Kuhn K A, Finkelman F D and Hirsch R. NK cells secrete high levels of IFN-γ in response to in vivo administration of IL-2. Eur J Immunol 2001 31:3355-3360). The experiment was carried out essentially according to the protocol in Thornton et al. and the test compounds were administered in order to determine the level of inhibition attained. In summary, female BALB/c mice were fasted for 12-18 hours before a study but had free access to water at all times. Test compounds were administered by gavage one hour before intraperitoneal injection of IL-2 and capture antibody. At termination of the studies, the mice were sacrificed by carbon dioxide inhalation, terminal blood samples were collected by cardiac puncture and serum was generated. Serum was stored frozen until it was assayed for IFN-γ, as described by the kit manufacturer (BD Pharmingen™, San Diego, Calif.).

The results in this text go back to US7884109B2, “Purine and imidazopyridine derivatives for immunosuppression” (Wyeth LLC, priority 2005, dated 2011).

The structures appear in SMILES notation. A value given as a limit tells only on which side of the number the result lay.

The compound `O=c1[nH]c2cnc(-n3cnc4ccccc43)nc2n1[C@@H]1CCOc2c(F)cc(F)cc21` displayed an IC50 at Human Jak3 of under 1000 nM. At Human Jak3 ((R) versus (S) enantiomer), the “Jak3 potency relative to the other enantiomer” value is listed as “more potent than its corresponding (S) enantiomer”.
Consider `O=c1[nH]c2cnc(-n3cnc4ccccc43)nc2n1[C@H]1CCOc2c(F)cc(F)cc21`, for which the IC50 on Human Jak3 is under 1000 nM.
Consider `C[C@@H]1CCN(C(=O)CC#N)C[C@@H]1N(C)c1ncnc2[nH]ccc12` [CP690550, reference compound], for which the inhibition at 30 mg/kg in assay [1] was found to be 96%.
Still for that read-out and setting: the same measure for `O=c1[nH]c2cnc(-n3cnc4ccccc43)nc2n1[C@@H]1CCOc2c(F)cccc21` [Example 114]: over 40%; for `C[C@H](c1cccnc1)n1c(=O)[nH]c2cnc(-n3cnc4ccccc43)nc21` [Example 120]: over 40%.
The same measure, in the same setting: the value for `O=C1CCC(n2c(=O)[nH]c3cnc(-n4cnc5ccccc54)nc32)c2ccccc21` (stereo not shown) [Example 135] was over 40%; that for `O=c1[nH]c2cnc(-n3cnc4ccc(F)cc43)nc2n1C1CCOc2c(F)cccc21` (stereo not shown) [Example 142] was over 40%; that for `O=c1[nH]c2cnc(-n3cnc4ccccc43)nc2n1C1CCOc2c(F)cc(F)cc21` (stereo not shown) [Example 151] was over 40%.
On the same count and under the same terms, the same measure for `O=c1[nH]c2cnc(-n3cnc4ccccc43)nc2n1C1CCOc2c(F)ccc(F)c21` (stereo not shown) [Example 162]: over 40%.
